These results are taken from ChEMBL document CHEMBL5506017, “Brain-Permeable Immunoproteasome-Targeting Macrocyclic Peptide Epoxyketones for Alzheimer's Disease” (J Med Chem, 2024).

One may read the IC50 as the concentration needed to halve the response being measured. The term Vdss denotes the apparent volume that relates the amount in the body to the concentration in plasma or blood. A higher Vdss goes with extensive tissue distribution.

Structures are written as SMILES. Activity calls are given as the source filed them. The rule behind the calls is not given here. Bounds are passed on as bounds.

The nature of series [1]: Apparent permeability of the compound across apical to basolateral side in human Caco-2 cells expressing Pgp/BCRP at 10 uM incubated for 120 mins by LC-MS/MS analysis. It is filed as ADME, cell-based. Conditions: caco-2, 2 h.
A short description of series [2]: Efflux ratio of apparent permeability across basolateral to apical side over apical to basolateral side in human Caco-2 cells expressing Pgp/BCRP at 10 uM incubated for 120 mins by LC-MS/MS analysis. It is filed as ADME, cell-based. Conditions: caco-2, 2 h. For orientation: Caco-2 monolayers are a common model of the intestinal barrier.
A short description of series [3]: Cytotoxicity against human ARPE-19 cells assessed as reduction in cell viability incubated for 96 hrs by CellTiter 96 Aqueous One Solution Cell Proliferation Assay. Type of series: toxicity, cell-based.
In series [4] the target is T1, Proteasome subunit beta type-9 (Mus musculus) (UniProt P28076).
T1 sequence (whole entry): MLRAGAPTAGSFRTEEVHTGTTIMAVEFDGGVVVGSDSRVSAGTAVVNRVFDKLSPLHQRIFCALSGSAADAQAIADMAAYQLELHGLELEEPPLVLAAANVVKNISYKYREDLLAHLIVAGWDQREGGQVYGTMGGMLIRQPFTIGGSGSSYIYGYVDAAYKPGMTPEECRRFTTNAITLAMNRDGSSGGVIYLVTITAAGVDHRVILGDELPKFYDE
Description: Inhibition of LMP2 in mouse BV-2 cells using Ac-PAL-AMC as substrate at 0.3 to 1 uM measured after 24 hrs by fluorescence based SpectraMax M5e plate reader. Conditions: dose 0.3-1 µM. Type of series: cell-based.

The nature of series [5]: C0 in BALB/c mouse at 40 mg/kg, iv measured upto 1440 mins by LC-MS/MS analysis. Type of series: ADME, organism-based. Conditions: in vivo, 24 h.
A short description of series [6]: Half life in BALB/c mouse at 40 mg/kg, iv measured upto 1440 mins by LC-MS/MS analysis. Type of series: ADME, organism-based. Conditions: in vivo, 24 h.
A short description of series [7]: Volume of distribution at steady state in BALB/c mouse at 40 mg/kg, iv measured upto 1440 mins by LC-MS/MS analysis. Type of series: ADME, organism-based. Conditions: in vivo, 24 h.
The nature of series [8]: Half life in BALB/c mouse at 150 mg/kg, po measured after 15 to 360 mins by LC-MS/MS analysis. Type of series: ADME, organism-based. Conditions: in vivo, time 15-360 min.
A short description of series [9]: Oral bioavailability in BALB/c mouse at 150 mg/kg measured after 15 to 360 mins by LC-MS/MS analysis. Type of series: ADME, organism-based. Conditions: in vivo, time 15-360 min.
The nature of series [10]: Protein binding in human plasma assessed as unbound fraction. It is filed as ADME, cell-free.
The nature of series [11]: Drug recovery in human plasma. It is filed as ADME, cell-free.
Series [12] in a line: Toxicity in BALB/c mouse assessed as diarrhea at 40 mg/kg, iv. It is filed as organism-based. Conditions: in vivo.
Series [13] in a line: Toxicity in BALB/c mouse assessed as effect on weight loss at 100 mg/kg, po. It is filed as organism-based. Conditions: in vivo.
The nature of series [14]: Toxicity in BALB/c mouse assessed as paralysis at 100 mg/kg, po. Type of series: organism-based. Conditions: in vivo.

Regarding `CC(C)C[C@H](NC(=O)[C@@H]1COCCCCCC(=O)N2C[C@H](F)C[C@H]2C(=O)N1)C(=O)[C@@]1(C)CO1`, in [1], the Papp is recorded as 6.62 10^-6 cm/s. Also, the Ratio in series [2] worked out at 2.62. Also, the IC50 at 96 h in [3] was > 100 µM. Moreover, in series [4], the inhibition result was “Active”. Also, in series [5], the C0 is 31987 ng/mL. In addition, the t1/2 in [6] stood at 25.2 min; in series [8], 47.5 min. In series [7], the Vdss amounted to 2.572 L/kg. Also, the F in series [9] was determined as 9.8%. For the same compound, the Fu in [10] is given as 0.45%. Further, in series [11], the Drug recovery was 74%. The Activity result in series [12], in [13] and in [14] was “Non-Toxic” throughout.
